Laboratory results reported in patent USRE35145E, “Substituted phthalocyanine” (Zeneca Limited, priority 1987, dated 1996).

What was measured:
[1] = Near infra-red absorption spectrum in solution (WLmax, ECmax, band width); type: physicochemical
Excerpt: The region from 750 to 1100 nm is of particular importance for optical character recognition (OCR) and for energy conversion, e.g. from laser radiation to heat. Many OCR systems use solid state semi-conductor lasers, which generally emit at 780-830 nm, as the radiation source and photodiode detectors based on silicon which have peak sensitivity around 900 rim.
WLmax is the wavelength of the absorption maximum; and
ECmax is the extinction coefficient at the absorption maximum.

[2] = Solubility in water, MEK, ethanol, glycols; type: physicochemical; settings: 25° C., percentages by weight
Excerpt: Various applications of the present compounds, especially for printing inks, require products which are soluble in solvents of differing polarities. The major requirements are for water-soluble products (water and water-alcohol or water-glycol mixtures), alcohol (typically methanol, ethanol and propanol) and glycol (typically ethylene glycol and diethylene glycol) soluble products and ketone (typically MEK) soluble products.

## hepta(4-methylphenylthio)-tetra(1-amino-2-thio-phen-1,2-ylene)-CuPc [OTCPC]
[1]; in CH3 Cl
  WLmax (wavelength of the absorption maximum): 890 nm
[1]; in MEK
  ECmax (extinction coefficient at the absorption maximum): 46,000
[2]
  Solubility: 10%
